The values that follow come from BindingDB's records for doi:10.1016/s0960-894x(98)00132-2 (Green Cross Research Laboratories, 1999).

The target in this assay is Chymotrypsinogen A (Bos taurus) (UniProt P00766). The assay is described as follows: Compound was evaluated for inhibitory activity against Bovine Chymotrypsinogen.

The structures appear in SMILES notation. A value given as a limit tells only on which side of the number the result lay.

Usually Ki stands for the equilibrium dissociation constant of an inhibitor or competing ligand from its target. In turn, `CC(C)(C)OC(=O)NC(CCC(=O)O)C(=O)N1CCC[C@H]1C(=O)NC(Cc1ccccc1)C(=O)C(F)(F)C(=O)Nc1cccc(C(=O)O)c1` (stereo partly drawn) [3-(4-{[(S)-1-(2-tert-Butoxycarbonylamino-4-carboxy-butyryl)-pyrrolidine-2-carbonyl]-amino}-2,2-difluoro-3-oxo-5-phenyl-pentanoylamino)-benzoic acid] displayed a Ki of 1300 nM.

Turning to `CC(C)(C)OC(=O)NC(CCC(=O)O)C(=O)N1CCC[C@H]1C(=O)NC(Cc1ccccc1)C(=O)C(F)(F)C(=O)Nc1cccc(S(N)(=O)=O)c1` (stereo partly drawn) [5-{(S)-2-[1-Benzyl-3,3-difluoro-2-oxo-3-(3-sulfamoyl-phenylcarbamoyl)-propylcarbamoyl]-pyrrolidin-1-yl}-4-tert-butoxycarbonylamino-5-oxo-pentanoic acid], the affinity corresponds to a Ki of 1030 nM. This Ki and that of the compound before are within 1.5-fold of each other. The compound `CC(C)(C)OC(=O)NC(CCC(=O)O)C(=O)N1CCC[C@H]1C(=O)NC(Cc1ccccc1)C(=O)C(F)(F)C(=O)Nc1cccc(CC(=O)O)c1` (stereo partly drawn) [5-{(S)-2-[1-Benzyl-3-(3-carboxymethyl-phenylcarbamoyl)-3,3-difluoro-2-oxo-propylcarbamoyl]-pyrrolidin-1-yl}-4-tert-butoxycarbonylamino-5-oxo-pentanoic acid] registered an inhibitory constant (Ki) of 3950 nM. As for `CC(C)(C)OC(=O)NC(CCC(=O)O)C(=O)N1CCC[C@H]1C(=O)NC(Cc1ccccc1)C(=O)C(F)(F)C(=O)Nc1cc(C(=O)O)cs1` (stereo partly drawn) [5-(4-{[(S)-1-(2-tert-Butoxycarbonylamino-4-carboxy-butyryl)-pyrrolidine-2-carbonyl]-amino}-2,2-difluoro-3-oxo-5-phenyl-pentanoylamino)-thiophene-3-carboxylic acid], the figure is more than 100000 nM; as for `CC(C)(C)OC(=O)NC(CC(=O)O)C(=O)N1CCC[C@H]1C(=O)NC(Cc1ccccc1)C(=O)C(F)(F)C(=O)Nc1cccc(C(=O)O)c1` (stereo partly drawn) [3-(4-{[(S)-1-(2-tert-Butoxycarbonylamino-3-carboxy-propionyl)-pyrrolidine-2-carbonyl]-amino}-2,2-difluoro-3-oxo-5-phenyl-pentanoylamino)-benzoic acid], more than 100000 nM; as for `CC(C)(C)OC(=O)NC(CCC(=O)O)C(=O)N1CCC[C@H]1C(=O)NC(Cc1ccccc1)C(=O)C(F)(F)C(=O)Nc1cccc(C(N)=O)c1` (stereo partly drawn) [5-{(S)-2-[1-Benzyl-3-(3-carbamoyl-phenylcarbamoyl)-3,3-difluoro-2-oxo-propylcarbamoyl]-pyrrolidin-1-yl}-4-tert-butoxycarbonylamino-5-oxo-pentanoic acid], 1220 nM.
